Experiment: Human HepG2 cell viability assay in 384 well format
Format: toxicity, cell-based
Design: dose 125 nL, time 70.5 hour; concentration not given beside the values
Conditions: HepG2 cells, read-out: Inhibition

Row | Compound | cytotoxicity at 70.5 h [%]
1 | CN(C)C(C(=O)NCC(F)(F)F)c1cccc(F)c1 (stereo unspecified) | -2.03
2 | Cc1nn(C)cc1C(C)Nc1ncnc2sccc12 (stereo unspecified) | 19.1
3 | CNc1nc(N2CCN(CC=C(C)C)C(CCO)C2)nc2c1CCC2 (stereo unspecified) | 6.77
4 | c1ccc(OCc2noc(CN3CCC(N4CCSCC4)CC3)n2)cc1 | -5.9
5 | NC1CCCCN(Cc2cc(-c3ccccc3OC(F)(F)F)no2)C1 (stereo unspecified) | -8.03
6 | Cc1nn(C)c2ncnc(NCC(O)CN3CCCCC3)c12 (stereo unspecified) | 21.5
7 | CCN(C)C[C@@H]1CN(Cc2cnc3c(S(C)(=O)=O)cnn3c2)C[C@@H]1CO | 1.07
8 | CCC(C(=O)N(Cc1ccccn1)C1CCCCC1)n1cccn1 (stereo unspecified) | 22.3
9 | COc1ccccc1N1CCC(N2CCOCC(CO)C2)CC1 (stereo unspecified) | -6.73
10 | CN(CCCc1cnn(C)c1)C(=O)Nc1cccc2[nH]nnc12 | -7.81
11 | CCn1ncc2[nH]c(-c3cc4c(cc3OC)OCO4)nc21 | -4.87
12 | CCOc1ccc(-c2ccnc(COc3ccccc3)n2)cc1C(=O)O | -0.267
13 | CC(Cn1cncn1)NCc1csc2c1CCCC2 (stereo unspecified) | -0.547
14 | COc1ccc(/C=C/CN2CCCC3(C2)CN(C)C(=O)O3)cc1 (stereo unspecified) | 11.6
15 | Cc1ccccc1C(C(=O)N(Cc1cnn(C)c1)CC(C)C)N(C)C (stereo unspecified) | -9.52
16 | Cc1ccc2c(c1)CN(CC(=O)NCCc1ccc(F)cc1)CC(C)O2 (stereo unspecified) | -7.54
17 | CCC[C@@H]1CN(c2cncc(C(=O)N3CCOCC3)n2)C[C@H]1N(C)C | 32.6
18 | Fc1cccc(-n2cc(CN3CCCCC3CCn3ccnc3)cn2)c1 (stereo unspecified) | 4.66
19 | Cn1nccc1C(=O)N1CCOC(Cc2ccc(F)cc2)C1 (stereo unspecified) | -3.53
20 | CNc1ncc(C(=O)N2CCC3(CC2)Nc2ccccc2NC3=O)cn1 | -0.695
21 | O=C1NCC2(CCCN(C(=O)Nc3ccc4occc4c3)CC2)O1 (stereo unspecified) | -1.24
22 | Cc1nc2[nH]cc(C(=O)N3CCCCC3c3ccc(F)cc3)c(=O)n2n1 (stereo unspecified) | 3.11
23 | COc1ccccc1N1CCN(Cc2nccc(OC)c2OC)CC1=O | 7.74

Row | Compound | cytotoxicity at 70.5 h [%]
24 | OC1(CN2CCc3nnc(Cc4cccnc4)n3CC2)CCCNC1 (stereo unspecified) | -4.53
25 | CN(CCO)Cc1nnc(C2CCN(C(=O)c3cccn3C)CC2)n1C | -5.93
26 | CCSc1ccc(C(=O)N2CCC3(CC2)[C@H](O)C[C@@H]3O)s1 | -12.1
27 | COc1cccc2c1OCC(Cc1cc(C(=O)N3CCCC3)ccn1)C2 (stereo unspecified) | -16.5
28 | O=C(Nc1nncs1)N1CCCN(C2CCCC2)CC1 | 18.5
29 | CC(C)c1cc(N2CC[C@H](F)C2)n2nccc2n1 | 2.77
30 | Nc1nccc(-c2cccc3ccnn23)n1 | -1.89
31 | COc1ccccc1CCc1nc(CC2CCN(C)CC2)no1 | -2.87
32 | CCn1cncc1C1CC(=O)Nc2c1c(C)nn2C (stereo unspecified) | -4.74
33 | CCOC(=O)c1n[nH]cc1CN1CCOC(Cc2ccc(OC)cc2)C1 (stereo unspecified) | -3.26
34 | OCCCN1CCc2[nH]nc(C(c3ccccc3)c3ccccc3)c2C1 | -3.77
35 | CC(C)c1cc(C(=O)N2CCN(C)[C@@H]3CS(=O)(=O)C[C@@H]32)no1 | -7.29
36 | C[C@@H]1CN(C(=O)CCc2cnn(C)c2)CC[C@@]1(O)C1CCOCC1 | 8.15
37 | Cc1ccccc1C(CC(=O)NCc1nnc(N)s1)c1ccccc1 (stereo unspecified) | -3.82
38 | COc1cccc(N2CCN(Cc3ccc4occc4c3)CC2=O)c1 | -12.9
39 | CC(C)(C(=O)NCC1CCN(Cc2ncc[nH]2)C1)c1ccccc1 (stereo unspecified) | -5.7
40 | COc1ccc2c(CN3CCN(Cc4cccc(F)c4)CC3)n[nH]c2c1 | -3.1
41 | Cc1ccc(N2CCN(C(=O)CCc3ccc(O)cc3)CC2=O)cc1 | -10.1
42 | Cn1cc(CCC(=O)N2C[C@@H]3CC[C@H](C2)N(Cc2ccccn2)C3)cn1 | -14
43 | CSCC1CCN(c2nc(N)ncc2C)CC1 | -9.1
44 | CCc1oc(C(=O)NCCSc2ncn[nH]2)cc1CN1CCCC1 | -9.51
45 | CC(C)Oc1cc(N2CC[C@H](CO)[C@@H](O)C2)nc(N)n1 | -8.74
46 | CCCN1CCC(CC(=O)NCCc2nc(C)cc(C)n2)CC1 | -4.92

Row | Compound | cytotoxicity at 70.5 h [%]
47 | CCn1ncnc1C(C)NC(=O)CC1CCN(C(C)C)CC1 (stereo unspecified) | 30
48 | Cc1ccc(C(C(=O)O)N(C)CCN2CCOCC2)c(F)c1 (stereo unspecified) | -9.66
49 | CCC(NC(=O)C1CCN(C(=O)C2CC2)CC1)c1cn2cccnc2n1 (stereo unspecified) | -8.35
50 | CN1C(=O)[C@H]2CC[C@@H]1CN(C(=O)c1csc(Cc3ccccc3)n1)C2 | -11.4
51 | CN(C)S(=O)(=O)N1CCCC(c2nccn2Cc2cccnc2)C1 (stereo unspecified) | -4.26
52 | O=C(CCCN1CCCCC1)N1CCN(C(=O)c2nc[nH]n2)CC1 | -3.03
53 | CN(CCCc1cnn(C)c1)C(=O)C1CCCN(C2CCCC2)C1 (stereo unspecified) | 7.47
54 | CNc1ncc(CN(C)C(=O)c2ccccc2C2CCNC2)cn1 (stereo unspecified) | 1.83
55 | CN(Cc1ncnn1C1Cc2ccccc2C1)C1CCS(=O)(=O)C1 (stereo unspecified) | -2.74
56 | COCC(=O)N1CCCN(C(=O)C2Cc3ccccc3CN2C)CC1 (stereo unspecified) | 11.5
57 | Cc1cc(C(F)(F)F)nc(CNC(=O)CCCN2CCCCC2)n1 | -2.62
58 | O=C(c1cc(Cl)ccc1OC1CCN(C2CCCC2)CC1)N1CC(O)C1 | 11.8
59 | COc1cccc(-n2cc(CN(C)C(=O)c3cc[nH]n3)cn2)c1 | -6.6
60 | CNC(=O)CCCNc1cc(C)nc2cc(C)nn12 | 5.3
61 | CCC(CO)N(Cc1ccccc1C)Cc1ccccc1C(=O)O (stereo unspecified) | -2.15
62 | Cc1ccc(C#N)c(N2CCC3(CCCN(C4CCOCC4)C3=O)C2)n1 (stereo unspecified) | -1.26
63 | O=c1[nH]c2cc3c(cc2cc1CN1CCCC1c1ccccn1)OCO3 (stereo unspecified) | -4.33
64 | CC(=O)NC1CCN(c2nc(N(C)C)nc3c2CCCC3)CC1 | -1.98
65 | c1cc(CN2CCCC2)cc(-n2ccnc2-c2ccncc2)c1 | 0.243
66 | COCCN(C)C[C@@H]1CN(c2nc(C)cc(C)n2)C[C@@H]1CO | 1.4
67 | CC(C)S(=O)(=O)N1CCCC(c2cccc(C(=O)O)c2)C1 (stereo unspecified) | -10.1
68 | N[C@@H]1c2ccccc2C2(CCN(C(=O)c3ccc(=O)[nH]c3)CC2)[C@H]1O | -6.66
69 | Cc1nc(CC2CCN(Cc3ccc(CCC(C)(C)O)cc3)CC2)no1 | 13.1

Row | Compound | cytotoxicity at 70.5 h [%]
70 | O=C(O)CNc1cc(-c2cc(C3CC3)ncn2)c2cc[nH]c2n1 | 0.922
71 | CN(CCc1cnn(C)c1)C(=O)Cn1c(=O)[nH]c2ccccc21 | -6.43
72 | Cn1cc(Cl)c(CN2CCCC(Cn3cc(CO)nn3)C2)n1 (stereo unspecified) | -6.23
73 | O=C(O)C1(Cc2ccc(F)cc2)CCCN(Cc2ccncc2)C1 (stereo unspecified) | 4.55
74 | OCCC1CN(c2ncnc3[nH]cnc23)CCN1Cc1ccccc1 (stereo unspecified) | -3.48
75 | COCC(c1ccccn1)N(C)C(=O)c1cc(-c2ccc(O)cc2)n[nH]1 (stereo unspecified) | -1.31
76 | COc1ccccc1-n1cc(C(=O)NCCCn2ccnn2)cn1 | -8.35
77 | COc1cccc(OCC2CCCN(C(=O)c3ccc(N)nc3)C2)c1 (stereo unspecified) | -11.6
78 | c1cc2c(cc1Cn1cc(C3CCOC3)nn1)OCO2 (stereo unspecified) | -16.1
79 | CCn1c(C2CCN(C(=O)COCC(F)(F)C(F)F)CC2)n[nH]c1=O | -6.79
80 | Cc1nc(CC(=O)N2CCC3(CC2)CC(=O)N(CC2CCCO2)C3)cs1 (stereo unspecified) | -3.04
81 | Cc1cccc(OC2CN(C(=O)C3CC(=O)N(C4CC4)C3)C2)c1 (stereo unspecified) | 4.04
82 | CCC[C@H]1CN(S(C)(=O)=O)C[C@@H]1NC(=O)c1ccc(COC)cc1 | 0.361
83 | CCc1ccccc1CN1CC[C@@]2(O)CCN(S(=O)(=O)N(C)C)C[C@H]2C1 | -3.87
84 | Cc1ccc(OCC2CCCN(c3cc(C(N)=O)ccn3)C2)cc1 (stereo unspecified) | 4.54
85 | CC(C)(CN1CCC2(CCNCC2)CC1)N1CCOCC1 | -3.64
86 | Cc1cc(C)c2[nH]c(C(=O)NCCN3CCNC3=O)c(C)c2c1 | -5.43
87 | CC(=O)N1CCN(Cc2ccc3c(c2)OCCO3)CC(O)C1 (stereo unspecified) | -10.7
88 | Cn1cc(CN(C/C=C/c2ccccc2)C2CC2)cn1 | -8.38
89 | Cc1c(-c2ccccc2)ncn1CC(c1cccnc1)N1CCOCC1 (stereo unspecified) | -2.03
90 | COc1cc(CN2CC[C@@H](N3CCCCCC3)[C@H](O)C2)cc(Cl)c1OC | -4.33
91 | COC[C@]1(O)CCN(C2CCN(c3ccc(F)c(F)c3)CC2)CC1(C)C | 22.6
92 | Cc1ccc(CN2C(=O)OCC2CO)c2ccccc12 (stereo unspecified) | -6.41

Row | Compound | cytotoxicity at 70.5 h [%]
93 | CN(Cc1nc2ccccc2c(=O)[nH]1)C[C@@H]1CCCN2CCCC[C@H]12 | -2.89
94 | O=C(NCc1noc(C2CCCO2)n1)c1cn2ccsc2n1 (stereo unspecified) | -9.32
95 | CCC[C@H]1CN(C(=O)Cn2ccccc2=O)C[C@@H]1NS(C)(=O)=O | -1.15
96 | CCN(Cc1ccncc1)Cc1c[nH]nc1-c1ccc(F)cc1 | -6.51
97 | CN(C)C(=O)CN1CCCN(CC2CCOc3ccccc3C2)CC1 (stereo unspecified) | -11.2
98 | CN1CCN(C)C2(CCN(Cc3ccc(C4CCCCO4)o3)CC2)C1 (stereo unspecified) | -1.75
99 | CCC(C(=O)NCc1csc(N2CCOCC2)n1)n1cccn1 (stereo unspecified) | -4.73
100 | CCCc1nnc(C(=O)N(C)Cc2cnc3ccccn23)o1 | 33.7
101 | CC(O)CCn1ccc2[nH]c(=O)c(C#N)cc2c1=O (stereo unspecified) | 4.38
102 | C[C@@H]1CN(CCOc2ccc(Cl)cc2)CC[C@@]1(O)C1CCOCC1 | 7.29
103 | CCCC1(CO)CCCN(C(=O)CNC(N)=O)C1 (stereo unspecified) | -28.7
104 | Cn1c(-c2ccccc2Cl)nc2cc(C(=O)NCCOCCO)cnc21 | -6.61
105 | COc1ccc(Cl)cc1C(C(=O)O)N1CCSCC1 (stereo unspecified) | -3.65
106 | CC(=O)N[C@@H]1CN(C(=O)c2ccc[nH]2)C[C@H]1c1ccc(C)o1 | 0.0626
107 | Cc1nc(C(C)N(C)Cc2nc(CCC(C)C)no2)c(C)s1 (stereo unspecified) | 0.293
108 | Cc1ccccc1N1CCN(c2ccncn2)C(C)C1 (stereo unspecified) | -2.86
109 | COCC(NC(=O)c1cc(NC(C)=O)ccc1Cl)c1ccnn1C (stereo unspecified) | -1.93
110 | OCc1ccc(CN2CCC(n3cc(-c4ccc(F)cc4)nn3)CC2)o1 | -8.09
111 | COc1ccc(CN2CCN(CC3CC3)[C@@H]3CS(=O)(=O)C[C@@H]32)cc1O | -2.14
